# Experimental data taken from patent publication US8835476B2, “Synthesis of novel antimicrobials” (priority 2005, dated 2014).
# Where two headings read alike, the source gives them in different places.
# Key:
# Assay type in all cases: cell-based
# [1] = system: P. rettgeri CAP; test: Broth microdilution MIC, reference strains; conditions: Providencia rettgeri, read-out: MIC (growth inhibition, microdilution method)
# Text: (§1) All clinical isolates tested were from The North American Urinary Tract Infection Collaborative Alliance (NAUTICA) which is a UTI surveillance study involving 40 medical centres (30 from the US and 10 from Canada). Each centre submitted up to 50 consecutive outpatient midstream urine isolates. All isolates were deemed significant urinary tract pathogens by individual laboratory criteria and identified to the species level by each laboratory's existing protocol. Isolates were transported to the coordinating laboratory (Health Sciences Centre, Winnipeg, Canada) on charcoal swabs. Only one isolate per patient was accepted. Upon receipt, isolates were cultured by the coordinating laboratory, stocked in skim milk, and stored at −80° C. awaiting reference antibiotic susceptibility testing. Elementary demographic information was also compiled for each isolate. Isolates were selected randomly from the above pool to represent 18 different species of Enterobacteriaceae and non-Enterobacteriaceae. An average of 5 strains of each species were tested for a total of 93 organisms. In addition, 23 reference (ATCC) [both gram negative and gram positive] strains were tested.
# (§2) Susceptibilities to the compounds were determined using the National Committee for Clinical Laboratory Standards (NCCLS) M7-A6 broth microdilution method. […] DMSO controls were incorporated into the panel to mimic the quantity of DMSO used in dissolving some of the compounds at the higher concentrations. Each final panel well volume was 100 μl with a bacterial inoculum of 5×10^5 colony forming units (CFU)/ml. Panels were read following 16 to 20 hours of incubation at 35° C. in ambient air. The minimum inhibitory concentration (MIC) was defined as the lowest concentration of antimicrobial inhibiting visible growth. Quality control (QC) was performed using four ATCC QC organisms that were run with every batch set up to insure reproducibility.
# [2] = system: E. faecium ATCC 35667; test: Broth microdilution MIC, ATCC strains; conditions: Enterococcus faecium, ATCC35667, read-out: MIC (growth inhibition, microdilution method)
# Text: as §1, §2
# [3] = system: S. epidermidis ATCC 14990; test: Broth microdilution MIC, ATCC strains; conditions: Staphylococcus epidermidis
# Text: as §1, §2
# [4] = system: K. pneumoniae ATCC 13883; test: Broth microdilution MIC, ATCC strains; conditions: Klebsiella pneumoniae
# Text: as §1, §2
# [5] = system: P. mirabilis ATCC 29245; test: Broth microdilution MIC, ATCC strains; conditions: Proteus mirabilis
# Text: as §1, §2
# [6] = system: B. cepacia ATCC 25416; test: Broth microdilution MIC, ATCC strains; conditions: Burkholderia cepacia, ATCC25416; B. cepacia ATCC 25416; read-out: MIC (growth inhibition, microdilution method)
# Text: as §1, §2
# [7] = system: S. simulans ATCC 27848; test: Broth microdilution MIC, ATCC strains; conditions: Staphylococcus simulans, ATCC27848, read-out: MIC (growth inhibition, microdilution method)
# Text: as §1, §2
# [8] = system: S. warneri ATCC 27836; test: Broth microdilution MIC, ATCC strains; conditions: Staphylococcus warneri
# Text: as §1, §2
# [9] = system: Pr. stuartii ATCC 33672; test: Broth microdilution MIC, ATCC strains; conditions: Providencia stuartii
# Text: as §1, §2
# [10] = system: P. vulgaris ATCC 49132; test: Broth microdilution MIC, ATCC strains; conditions: Proteus vulgaris
# Text: as §1, §2
# [11] = system: S. liquefaciens ATCC 27592; test: Broth microdilution MIC, ATCC strains; conditions: read-out: MIC (growth inhibition, microdilution method)
# Text: as §1, §2
# [12] = system: E. coli ATCC 25922; test: Broth microdilution MIC, ATCC strains; conditions: for MIC: Escherichia coli
# Text: as §1, §2
# [13] = system: A. anitratus ATCC 19606; test: Broth microdilution MIC, ATCC strains; conditions: Acinetobacter calcoaceticus, ATCC19606; A. anitratus ATCC 19606; read-out: MIC (growth inhibition, microdilution method)
# Text: as §1, §2
# [14] = system: K. oxytoca clinical isolates; test: Broth microdilution MIC, clinical isolate strains (NAUTICA); conditions: clinical isolates, one table line per isolate; unit assumed
# Text: as §1, §2
# [15] = system: C. amalonaticus clinical isolates; test: as above; conditions: clinical isolates, one table line per isolate; unit assumed
# Text: as §1, §2
# [16] = system: C. freundii clinical isolates; test: as above; conditions: clinical isolates, one table line per isolate; in µg/mL (unit assumed)
# Text: as §1, §2
# [17] = system: E. cloacae clinical isolates; test: as above; conditions: clinical isolates, one table line per isolate; unit assumed
# Text: as §1, §2
# [18] = system: P. vulgaris clinical isolates; test: as above; conditions: clinical isolates, one table line per isolate; unit assumed
# Text: as §1, §2
# [19] = system: S. marcescens clinical isolates; test: as above; conditions: clinical isolates, one table line per isolate; unit assumed
# Text: as §1, §2
# [20] = system: P. mirabilis clinical isolates; test: as above; conditions: clinical isolates, one table line per isolate; unit assumed
# Text: as §1, §2
# [21] = system: E. aerogenes clinical isolates; test: as above; conditions: clinical isolates, one table line per isolate; unit assumed
# Text: as §1, §2
# [22] = system: S. liquifaciens clinical isolates; test: as above; conditions: clinical isolates, one table line per isolate; unit assumed
# Text: as §1, §2
# [23] = system: K. pneumoniae clinical isolates; test: as above; conditions: clinical isolates, one table line per isolate; unit assumed
# Text: as §1, §2
# [24] = system: C. koseril clinical isolates; test: as above; conditions: clinical isolates, one table line per isolate; unit assumed
# Text: as §1, §2
# [25] = system: M. morganii clinical isolates; test: as above; conditions: clinical isolates, one table line per isolate; unit assumed
# Text: as §1, §2
# [26] = system: P. retgerri clinical isolates; test: as above; conditions: clinical isolates, one table line per isolate; unit assumed
# Text: as §1, §2
# [27] = system: E. coli clinical isolates; test: as above; conditions: clinical isolates, one table line per isolate; unit assumed
# Text: as §1, §2
# [28] = system: B. cepacia clinical isolates; test: as above; conditions: clinical isolates, one table line per isolate; unit assumed
# Text: as §1, §2
# [29] = system: S. maltophilia clinical isolates; test: as above; conditions: clinical isolates, one table line per isolate; unit assumed
# Text: as §1, §2
# [30] = ATCC13883, read-out: MIC (growth inhibition, microdilution method)
# [31] = ATCC29245, read-out: MIC (growth inhibition, microdilution method)
# [32] = ATCC27836, S. warneri ATCC 27836, read-out: MIC (growth inhibition, microdilution method)
# [33] = ATCC33672, Pr. stuartii ATCC 33672, read-out: MIC (growth inhibition, microdilution method)
# [34] = ATCC49132, read-out: MIC (growth inhibition, microdilution method)
# [35] = ATCC25922, E. coli ATCC 25922, read-out: MIC (growth inhibition, microdilution method)
# [36] = ATCC25922, read-out: MIC (growth inhibition, microdilution method)
# [37] = ATCC14990, S. epidermidis ATCC 14990, read-out: MIC (growth inhibition, microdilution method)
# [38] = ATCC13883, K. pneumoniae ATCC 13883, read-out: MIC (growth inhibition, microdilution method)
# [39] = ATCC29245, P. mirabilis ATCC 29245, read-out: MIC (growth inhibition, microdilution method)
# [40] = ATCC49132, P. vulgaris ATCC 49132, read-out: MIC (growth inhibition, microdilution method)
SMILES,MIC [2],MIC [6],MIC [7],"MIC [8, 32]","MIC [9, 33]","MIC [12, 35]",MIC [13],"MIC, K. OXYTOCA [14]","MIC, C. AMALONATICUS [15]","MIC, C. FREUNDII [16]","MIC, E. CLOACAE [17]","MIC, P. VULGARIS [18]","MIC, S. MARCESCENS [19]","MIC, P. MIRABILIS [20]","MIC, E. AEROGENES [21]","MIC, S. LIQUEFACIENS [22]","MIC, K. PNEUMONIAE [23]","MIC, C. KOSERI [24]","MIC, M. MORGANII [25]","MIC [3, 37]",further results
"O=C(O)c1cc(-c2nnn[nH]2)c(C(=O)O)s1 [DNM-111, 3-(1H-tetrazol-5-yl)thiophene-2,5-dicarboxylic acid]",8 µg/mL,64 µg/mL,256 µg/mL,256 µg/mL,256 µg/mL,64 µg/mL,64 µg/mL,128 µg/mL,128 µg/mL,128,128 µg/mL,128 µg/mL,128 µg/mL,128 µg/mL,128 µg/mL,128 µg/mL,128 µg/mL,128 µg/mL,128 µg/mL,,"MIC [1]: 128 µg/mL; MIC ([3]; ATCC14990, read-out: MIC (growth inhibition, microdilution method)): 128 µg/mL; MIC [4, 30]: 128 µg/mL; MIC [5, 31]: 128 µg/mL; MIC [10, 34]: 128 µg/mL; MIC [11]: 128 µg/mL; MIC [12, 36]: 128 µg/mL"
"COC(=O)c1cc(-c2nnn(C)n2)c(C(=O)OC)s1 [DNM-114, 3-(2-methyl-2H-tetrazol-5-yl)-thiophene-2,5-dicarboxylic acid dimethyl ester]",8 µg/mL,64 µg/mL,256 µg/mL,,,,64 µg/mL,128 µg/mL,128 µg/mL,128,128 µg/mL,128 µg/mL,128 µg/mL,128 µg/mL,128 µg/mL,128 µg/mL,128 µg/mL,128 µg/mL,128 µg/mL,64 µg/mL,"MIC [1]: 128 µg/mL; MIC [4, 30]: 128 µg/mL; MIC [5, 31]: 128 µg/mL; MIC ([8]; ATCC27836, read-out: MIC (growth inhibition, microdilution method)): 128 µg/mL; MIC ([9]; ATCC33672, read-out: MIC (growth inhibition, microdilution method)): 128 µg/mL; MIC [10, 34]: 128 µg/mL; MIC [11]: 128 µg/mL; MIC [12, 36]: 128 µg/mL; MIC, P. RETTGERI [26]: 128 µg/mL; MIC, E. COLI [27]: 128 µg/mL; MIC, B. CEPACIA [28]: 64 µg/mL"
"Cn1nnc(-c2cc(C(=O)O)sc2-c2ccc(F)cc2)n1 [DNM-123, 5-(4-fluorophenyl)-4-(2-methyl-2H-tetrazol-5-yl)thiophene-2-carboxylic acid]",8 µg/mL,≤ 0.5 µg/mL,> 8 µg/mL,> 8 µg/mL,> 8 µg/mL,8 µg/mL,≤ 0.5 µg/mL,,,8,,,,,,,,,,4 µg/mL,"MIC ([1]; P. rettgeri (CAP in Table 1)): > 8 µg/mL; MIC [4, 38]: 8 µg/mL; MIC [5, 39]: > 8 µg/mL; MIC [10, 40]: > 8 µg/mL; MIC ([11]; S. liquefaciens ATCC 27592): 8 µg/mL; MIC (growth inhibition, microdilution method) ([12]; E. coli ATCC 25922): 8 µg/mL"
"CCOC(=O)c1cc(-c2nnn[nH]2)c(-c2ccc(F)cc2)s1 [DNM-124, 5-(4-Fluoro-phenyl)-4-(1H-tetrazol-5-yl)-thiophene-2-carboxylic acid ethyl ester]",> 64 µg/mL,64 µg/mL,> 64 µg/mL,> 64 µg/mL,> 64 µg/mL,> 64 µg/mL,64 µg/mL,> 64 µg/mL,> 64 µg/mL,>64,> 64 µg/mL,> 64 µg/mL,> 64 µg/mL,> 64 µg/mL,> 64 µg/mL,> 64 µg/mL,> 64 µg/mL,> 64 µg/mL,> 64 µg/mL,64 µg/mL,"MIC ([1]; P. rettgeri (CAP in Table 1)): > 64 µg/mL; MIC [4, 38]: > 64 µg/mL; MIC [5, 39]: > 64 µg/mL; MIC [10, 40]: > 64 µg/mL; MIC ([11]; S. liquefaciens ATCC 27592): > 64 µg/mL; MIC, P. RETTGERI [26]: > 64 µg/mL; MIC, E. COLI [27]: > 64 µg/mL; MIC, S. MALTOPHILIA [29]: > 64 µg/mL"
